Assay results as given in patent US12577245B2, “Sulfonyl benzamide derivatives as Bcl-2 inhibitors” (ASCENTAGE PHARMA (SUZHOU) CO., LTD., priority 2021, dated 2026).

What was measured:
RS4; 11Bcl-2-G101V cells = experiment: CellTiter-Glo (CTG) cell viability assay in RS4;11-Bcl-2-G101V cells; assay type: cell-based; settings: 72 h, 10% FBS, 3 days
In short: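 Luminescent ATP read-out (CellTiter-Glo) after 3-day compound treatment at 37 °C gave viability relative to vehicle, from which IC50 was fitted. Mutant Bcl-2 RS4;11 cells were seeded at 10000 per well and rested 4 h before dosing.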

Bcl-2 WT = Bcl-2 WT (Homo sapiens, UniProt P10415); experiment: Bcl-2 WT inhibition, fluorescence polarization (Flu-BIM tracer) binding assay; settings: FP; 20 nM Bcl2, 5 nM Flu-BIM, 1 h incubation; read-out: Bcl-2 w.t. (FP)
MV-4-11 cells = experiment: CCK-8 cell viability assay in MV-4-11 cells; assay type: cell-based; settings: Homo sapiens, MV4-11, 72 h, 10% FBS, 3 days
In short: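 IC50 values come from vehicle-normalized CCK-8 absorbance at 450 nm, read 1–4 h after reagent addition. Before that, MV-4-11 cells seeded at 20000 per well were cultured 3 days at 37 °C with a compound dilution series.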

Chain of Bcl-2 WT (P10415 whole entry): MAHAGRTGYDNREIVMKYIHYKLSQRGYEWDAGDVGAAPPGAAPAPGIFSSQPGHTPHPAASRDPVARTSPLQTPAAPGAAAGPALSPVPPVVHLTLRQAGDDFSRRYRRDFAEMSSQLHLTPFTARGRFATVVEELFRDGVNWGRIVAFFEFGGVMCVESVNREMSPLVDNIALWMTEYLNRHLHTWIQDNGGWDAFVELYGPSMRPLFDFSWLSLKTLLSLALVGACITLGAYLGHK

| Structure (SMILES) | IC50 (RS4; 11Bcl-2-G101V cells) [nM] | IC50 (Bcl-2 WT) [nM] | IC50 (MV-4-11 cells) [nM] |
| --- | --- | --- | --- |
| CC1(C)CCC(CN2CCN(c3ccc(C(=O)NS(=O)(=O)c4ccc(NC[C@H]5CC[C@](C)(O)CC5)c([N+](=O)[O-])c4)c(Oc4cnc5[nH]ccc5c4)c3)CC2)=C(c2cc(-c3cc(F)c(F)cc3F)cs2)C1 [Example 53, 2-((1H-pyrrolo[2,3-b]pyridin-5-yl)oxy)-4-(4-((4,4-dimethyl-2-(4-(2,4,5-trifluorophenyl)thiophen-2-yl)cyclohex-1-en-1-yl)methyl)piperazin-1-yl)-N-((4-((((1r,4r)-4-hydroxy-4-methylcyclohexyl)methyl)amino)-3-nitrophenyl)sulfonyl)benzamide] | 430 | 27.8 | 9 |
| CC1(C)CCC(CN2CCN(c3ccc(C(=O)NS(=O)(=O)c4ccc(NC[C@H]5CC[C@](C)(O)CC5)c([N+](=O)[O-])c4)c(Oc4cnc5[nH]ccc5c4)c3)CC2)=C(c2cc(-c3c(F)ccc(F)c3F)cs2)C1 [Example 54, 2-((1H-pyrrolo[2,3-b]pyridin-5-yl)oxy)-4-(4-((4,4-dimethyl-2-(4-(2,3,6-trifluorophenyl)thiophen-2-yl)cyclohex-1-en-1-yl)methyl)piperazin-1-yl)-N-((4-((((1r,4r)-4-hydroxy-4-methylcyclohexyl)methyl)amino)-3-nitrophenyl)sulfonyl)benzamide] | 270 | 22.8 | 7 |
| CC1(C)CCC(CN2CCN(c3ccc(C(=O)NS(=O)(=O)c4ccc(NC[C@H]5CC[C@](C)(O)CC5)c([N+](=O)[O-])c4)c(Oc4cnc5[nH]ccc5c4)c3)CC2)=C(c2cc(-c3cc(F)cc(C#N)c3)cs2)C1 [Example 55, 2-((1H-pyrrolo[2,3-b]pyridin-5-yl)oxy)-4-(4-((2-(4-(3-cyano-5-fluorophenyl)thiophen-2-yl)-4,4-dimethylcyclohex-1-en-1-yl)methyl)piperazin-1-yl)-N-((4-((((1r,4r)-4-hydroxy-4-methylcyclohexyl)methyl)amino)-3-nitrophenyl)sulfonyl)benzamide] | 1140 | 31.2 | 72 |
| CC1(C)CCC(CN2CCN(c3ccc(C(=O)NS(=O)(=O)c4ccc(NC[C@H]5CC[C@](C)(O)CC5)c([N+](=O)[O-])c4)c(Oc4cnc5[nH]ccc5c4)c3)CC2)=C(c2cc(-c3ccc(C(C)(C)C#N)cc3)cs2)C1 [Example 56, 2-((1H-pyrrolo[2,3-b]pyridin-5-yl)oxy)-4-(4-((2-(4-(4-(2-cyanopropan-2-yl)phenyl)thiophen-2-yl)-4,4-dimethylcyclohex-1-en-1-yl)methyl)piperazin-1-yl)-N-((4-((((1r,4r)-4-hydroxy-4-methylcyclohexyl)methyl)amino)-3-nitrophenyl)sulfonyl)benzamide] | 1910 | 16.1 | 68 |
| CN(C)c1ccccc1-c1csc(C2=C(CN3CCN(c4ccc(C(=O)NS(=O)(=O)c5ccc(NC[C@H]6COCCO6)c([N+](=O)[O-])c5)c(Oc5cnc6[nH]ccc6c5)c4)CC3)CCC(C)(C)C2)c1 [Example 58, (S)—N-((4-(((1,4-dioxan-2-yl)methyl)amino)-3-nitrophenyl)sulfonyl)-2-((1H-pyrrolo[2,3-b]pyridin-5-yl)oxy)-4-(4-((2-(4-(2-(dimethylamino)phenyl)thiophen-2-yl)-4,4-dimethylcyclohex-1-en-1-yl)methyl)piperazin-1-yl)benzamide] | 3050 | 20.1 | 178 |
| CC1(C)CCC(CN2CCN(c3ccc(C(=O)NS(=O)(=O)c4ccc(NC[C@H]5CC[C@](C)(O)CC5)c([N+](=O)[O-])c4)c(Oc4cnc5[nH]ccc5c4)c3)CC2)=C(c2cc(-c3ccc(C(C)(C)O)cc3)cs2)C1 [Example 59, 2-((1H-pyrrolo[2,3-b]pyridin-5-yl)oxy)-N-((4-((((1r,4r)-4-hydroxy-4-methylcyclohexyl)methyl)amino)-3-nitrophenyl)sulfonyl)-4-(4-((2-(4-(4-(2-hydroxypropan-2-yl)phenyl)thiophen-2-yl)-4,4-dimethylcyclohex-1-en-1-yl)methyl)piperazin-1-yl)benzamide] | 290 | 29.3 | 2 |
| CC1(C)CCC(CN2CCN(c3ccc(C(=O)NS(=O)(=O)c4ccc(NC[C@H]5CC[C@](C)(O)CC5)c([N+](=O)[O-])c4)c(Oc4cnc5[nH]ccc5c4)c3)CC2)=C(c2cc(-c3ccc(C(O)(C(F)(F)F)C(F)(F)F)cc3)cs2)C1 [Example 60, 2-((1H-pyrrolo[2,3-b]pyridin-5-yl)oxy)-4-(4-((2-(4-(4-(1,1,1,3,3,3-hexafluoro-2-hydroxypropan-2-yl)phenyl)thiophen-2-yl)-4,4-dimethylcyclohex-1-en-1-yl)methyl)piperazin-1-yl)-N-((4-((((1r,4r)-4-hydroxy-4-methylcyclohexyl)methyl)amino)-3-nitrophenyl)sulfonyl)benzamide] | 3410 | 20.4 | 303 |
| CC1(C)CCC(CN2CCN(c3ccc(C(=O)NS(=O)(=O)c4ccc(NC[C@H]5CC[C@](C)(O)CC5)c([N+](=O)[O-])c4)c(Oc4cnc5[nH]ccc5c4)c3)CC2)=C(c2cc(-c3ccc(C(C)(C)O)cc3F)cs2)C1 [Example 62, 2-((1H-pyrrolo[2,3-b]pyridin-5-yl)oxy)-4-(4-((2-(4-(2-fluoro-4-(2-hydroxypropan-2-yl)phenyl)thiophen-2-yl)-4,4-dimethylcyclohex-1-en-1-yl)methyl)piperazin-1-yl)-N-((4-((((1r,4r)-4-hydroxy-4-methylcyclohexyl)methyl)amino)-3-nitrophenyl)sulfonyl)benzamide] | 140 | 15.7 | 4 |
| CC1(C)CCC(CN2CCN(c3ccc(C(=O)NS(=O)(=O)c4ccc(NC[C@H]5COCCO5)c([N+](=O)[O-])c4)c(Oc4cnc5[nH]ccc5c4)c3)CC2)=C(c2cc(-c3c(F)cc(C(C)(C)O)cc3F)cs2)C1 [Example 64, (S)—N-((4-(((1,4-dioxan-2-yl)methyl)amino)-3-nitrophenyl)sulfonyl)-2-((1H-pyrrolo[2,3-b]pyridin-5-yl)oxy)-4-(4-((2-(4-(2,6-difluoro-4-(2-hydroxypropan-2-yl)phenyl)thiophen-2-yl)-4,4-dimethylcyclohex-1-en-1-yl)methyl)piperazin-1-yl)benzamide] | 30 | 16.4 | 7 |
| CCC(O)(CC)c1cc(F)c(-c2csc(C3=C(CN4CCN(c5ccc(C(=O)NS(=O)(=O)c6ccc(NC[C@H]7CC[C@](C)(O)CC7)c([N+](=O)[O-])c6)c(Oc6cnc7[nH]ccc7c6)c5)CC4)CCC(C)(C)C3)c2)c(F)c1 [Example 67, 2-((1H-pyrrolo[2,3-b]pyridin-5-yl)oxy)-4-(4-((2-(4-(2,6-difluoro-4-(3-hydroxypentan-3-yl)phenyl)thiophen-2-yl)-4,4-dimethylcyclohex-1-en-1-yl)methyl)piperazin-1-yl)-N-((4-((((1r,4r)-4-hydroxy-4-methylcyclohexyl)methyl)amino)-3-nitrophenyl)sulfonyl)benzamide] | 840 | 27.2 | 251 |
| [2H]C([2H])([2H])C(O)(c1cc(F)c(-c2csc(C3=C(CN4CCN(c5ccc(C(=O)NS(=O)(=O)c6ccc(NC[C@H]7CC[C@](C)(O)CC7)c([N+](=O)[O-])c6)c(Oc6cnc7[nH]ccc7c6)c5)CC4)CCC(C)(C)C3)c2)c(F)c1)C([2H])([2H])[2H] [Example 68, 2-((1H-pyrrolo[2,3-b]pyridin-5-yl)oxy)-4-(4-((2-(4-(2,6-difluoro-4-(2-hydroxypropan-2-yl-1,1,1,3,3,3-d6)phenyl)thiophen-2-yl)-4,4-dimethylcyclohex-1-en-1-yl)methyl)piperazin-1-yl)-N-((4-((((1r,4r)-4-hydroxy-4-methylcyclohexyl)methyl)amino)-3-nitrophenyl)sulfonyl)benzamide] | 21 | 23.2 | 9 |
| CC1(C)CCC(CN2CCN(c3ccc(C(=O)NS(=O)(=O)c4ccc(NC[C@H]5CC[C@](C)(O)CC5)c([N+](=O)[O-])c4)c(Oc4cnc5[nH]ccc5c4)c3)CC2)=C(c2cc(-c3c(F)cc(C(C)(O)C4CC4)cc3F)cs2)C1 (stereo partly drawn) [Example 69, 2-((1H-pyrrolo[2,3-b]pyridin-5-yl)oxy)-4-(4-((2-(4-(4-(1-cyclopropyl-1-hydroxyethyl)-2,6-difluorophenyl)thiophen-2-yl)-4,4-dimethylcyclohex-1-en-1-yl)methyl)piperazin-1-yl)-N-((4-((((1r,4r)-4-hydroxy-4-methylcyclohexyl)methyl)amino)-3-nitrophenyl)sulfonyl)benzamide] | 300 | 24.8 | 473 |
| CC1(C)CCC(CN2CCN(c3ccc(C(=O)NS(=O)(=O)c4ccc(NC[C@H]5CC[C@](C)(O)CC5)c([N+](=O)[O-])c4)c(Oc4cnc5[nH]ccc5c4)c3)CC2)=C(c2cc(-c3cccc(C(C)(C)O)c3)cs2)C1 [Example 70, 2-((1H-pyrrolo[2,3-b]pyridin-5-yl)oxy)-N-((4-((((1r,4r)-4-hydroxy-4-methylcyclohexyl)methyl)amino)-3-nitrophenyl)sulfonyl)-4-(4-((2-(4-(3-(2-hydroxypropan-2-yl)phenyl)thiophen-2-yl)-4,4-dimethylcyclohex-1-en-1-yl)methyl)piperazin-1-yl)benzamide] | 1460 | 19.8 | 95 |
